Broadly, the IC50 is the concentration at which inhibition is half-maximal.

One experiment has as its system lung line L2987. Briefly: Cytotoxicity assay (alamarBlue cell viability), lung line L2987, experiment 2. It counts as cell-based. The note with it: Homo sapiens. As to the method: FIG. 1 is the cytotoxicity dose response curves for lung line L2987. […] Briefly, the assayed involved plating 1000 cells per well in a volume of 120 μL in a 96 well flat-bottom dish (Corning) on day -1. Twenty-four hours later the appropriate dilution of a compound of formula I was added in a volume of 30 μL complete medium (final volume 150 μL). The plates were sealed with a plate sealer (Dynatech Labs) to prevent evaporation. On day 5 the mylar film was removed and 15 μL of sterile alamarBlue was added to each well and the cells were incubated 37° C. 5% CO2 for two hours. Using a Vmax plate reader the optical density for each well was determined having the […]. The 100% signal was determined for cells grown in complete medium containing only 0.5% DMSO. All wells were set-up in triplicate and the mean values were plotted in FIG. 1.
(Resazurin is reduced to fluorescent resorufin, in cell work by metabolically active cells.)

The subject of experiment [1] is second primary tumors in squamous-cell carcinoma of the head and neck. The settings on record: Hong et al., N. Engl. J. Med., 1990; cited from earlier work.
The mark [2] stands for this setting: L2987 lung line, 1000 cells per well, compound added 24 h after plating, read on day 5 with alamarBlue, triplicate wells, read-out: IC50 values for L2987 experiment 2.

Where two headings read alike, the source gives them in different places.

In the case of `Cc1ccc(-c2cccc3ccc(C(=O)Nc4ccc(C(=O)O)cc4)cc23)cc1C` [I^2' f, 4-[[[8-(3,4-Dimethylphenyl)-2-naphthalenyl]carbonyl]amino]benzoic acid], in the experiment on lung line L2987 (setting [2]), the IC50 stood at 49 µM.

As for `CC1=C(/C=C/C(C)=C/C=C/C(C)=C/C(=O)O)C(C)(C)CCC1` [All trans retinoic acid, reference compound], in the experiment with lung line L2987 (L2987, read-out: IC50 values for L2987 experiment 2), the IC50 was determined as 68 µM.

Turning to `O=C(O)c1ccc(NC(=O)c2ccc3cccc(-c4ccccc4)c3c2)cc1` [I^2' a, 4-[[(8-phenyl-2-naphthalenyl)carbonyl]amino]benzoic acid], in the experiment with lung line L2987 (setting [2]), the IC50 stood at 72 µM.

Regarding `CC1=C(/C=C/C(C)=C/C=C/C(C)=C\C(=O)O)C(C)(C)CCC1` [Isotretinoin], the “prevention of second primary tumors in squamous-cell carcinoma of the head and neck” value in experiment [1] was “shown to be useful in prevention of second primary tumors”.

For the molecule `Cc1ccc(-c2cccc3ccc(C(=O)Nc4ccc(C(=O)O)cc4)cc23)c(C)c1` [I^2' g, 4-[[[8-(2,4 -Dimethylphenyl)-2-naphthalenyl]carbonyl]amino]benzoic acid], the IC50 in the experiment on lung line L2987 (setting [2]) was 54 µM.

`Cc1cc(C)cc(-c2cccc3ccc(C(=O)Nc4ccc(C(=O)O)cc4)cc23)c1` [I^2' b, 4-[[[8(3,5-Dimethylphenyl)-2-naphthalenyl]carbonyl]amino]benzoic acid]: the IC50 with lung line L2987 (setting [2]) was 39 µM.

(Values after patent US5523457A, “Retinoid-like compounds” (Bristol-Myers Squibb Company, priority 1995, dated 1996).)
